Measured values published in patent US20240190828A1, “Small Molecule Inhibitors of PBRM1-BD2” (The Medical College of Wisconsin, Inc., priority 2021, published 2024).
Read-outs that look alike come from different tables or passages of the source.

Tests used:
PBRM1-BD2 [1] = target: T1, PBRM1-BD2 (Homo sapiens (Human), UniProt Q86U86); assay: AlphaScreen competition assay, His6-tagged PBRM1-BD2 and biotinylated H3K14ac peptide; type: binding; conditions: 0.2 μM His6-PBRM1-BD2, 0.1 μM biotinylated H3K14ac peptide
PBRM1-BD2 [2] = target: T1, PBRM1-BD2; conditions: read-out: Kd PBRM1-BD2; ITC; NB = did not bind (heat below 0.1 μcal per second)
Description: (§3) Binding affinities of inhibitors towards PBRM1-BD2, PBRM1-BD5, SMARCA2, SMARCA4, and ASH1L were determined using a VP-ITC instrument (MicroCal). […] Protein concentrations were determined via the method of Bradford.^1 The buffer used for all ITC experiments consisted of 50 mM HEPES (pH 7.5 at 20° C.), 500 mM NaCl, 5% v/v glycerol, and 1% v/v DMSO; except for experiments involving PBRM1-BD2 whose buffer consisted of 100 mM Na2PO4 (pH 7.5 at 20° C.), 100 mM NaCl, 5% v/v glycerol, and 1% v/v DMSO. Kd values were determined by least-squares fitting to the raw data using Origin (OriginLab).

PBRM1-BD5 = PBRM1-BD5 (Homo sapiens (Human), UniProt Q86U86); conditions: read-out: Kd PBRM1-BD5; ITC; NB = did not bind
Description: as §3

PBRM1-BD2 [3] = target: T1, PBRM1-BD2; assay: biochemical; type: binding
Description: Protein-detected NMR-based fragment screening has the advantage of providing information about both binding affinity and the amino acid residues involved in binding.
NMR spectroscopy. Automated NMR data collection was performed on ^15N-labeled PBRM1-BD2 (50 μM) by using ^1H,^15N SOFAST-HMQC experiments. […] The total time for screening 85 or 82 samples each containing 12 fragments or DMSO by ^1H,^15N SOFAST-HMQC was 46 h (˜32 min/sample). […] All NMR data were processed using NMRPipe^4 in NMRbox.^5 Spectra were processed by using in-house automated Python scripts in NMRPipe,^4 and chemical shifts perturbation were analyzed using SPARKY.^6 Total ^1H/^15N chemical shift perturbations and equilibrium dissociation constants (Kd) were calculated as reported.^2

PBRM1-BD2 [4] = target: T1, PBRM1-BD2; assay: biochemical; type: binding; conditions: read-out: PBRM1-BD2 ΔTm, DSF, 10 μM protein, 100 μM inhibitor, vs apoprotein
Description: DSF measures protein unfolding by monitoring the fluorescence of the SYPRO Orange dye as a function of temperature; positive thermal shifts indicate ligand binding induced stabilization of the protein.
(§1) Differential Scanning Fluorimetry (DSF). Bromodomain DSF Tm assays were performed using an Mx3005P (Stratagene) PCR detection system and low profile 96-well PCR plates (UltraFlux, Flat Top, SSI 3400-00S). […] The temperature was raised by 1° C./min from 25-95° C., and fluorescence readings were taken at each interval. Melting curves were analyzed using our online interactive fitting tool for thermofluor experiments (https://dsf-analysis.herokuapp.com/DSF-analysis) and plotted using GraphPad Prism.

BRD4-BD2 = BRD4-BD2 (Homo sapiens (Human), UniProt O60885); assay: DSF selectivity profiling; type: binding
Description: as §1

SMARCA4 [5] = target: T2, SMARCA4 (Homo sapiens (Human), UniProt P51532); assay: DSF selectivity profiling; type: binding
Description: as §1

PCAF = PCAF (Homo sapiens (Human), UniProt Q92831); assay: DSF selectivity profiling; type: binding
Description: as §1

BRD3-BD2 = BRD3-BD2 (Homo sapiens (Human), UniProt Q15059); assay: DSF selectivity profiling; type: binding
Description: as §1

BRD2-BD2 = BRD2-BD2 (Homo sapiens (Human), UniProt P25440); assay: DSF selectivity profiling; type: binding
Description: as §1

BRD4-BD1 = BRD4-BD1 (Homo sapiens (Human), UniProt O60885); assay: DSF selectivity profiling; type: binding
Description: as §1

p300 = p300 (Homo sapiens (Human), UniProt Q09472); assay: DSF selectivity profiling; type: binding
Description: as §1

BRD7 = BRD7 (Homo sapiens (Human), UniProt Q9NPI1); assay: DSF selectivity profiling; type: binding
Description: as §1

CECR2 = CECR2 (Homo sapiens (Human), UniProt Q9BXF3); assay: DSF selectivity profiling; type: binding
Description: as §1

ASH1L = ASH1L (Homo sapiens (Human), UniProt Q9NR48); assay: DSF selectivity profiling; type: binding
Description: as §1

BRD3-BD1 = BRD3-BD1 (Homo sapiens (Human), UniProt Q15059); assay: DSF selectivity profiling; type: binding
Description: as §1

TRIM33A = TRIM33A (Homo sapiens (Human), UniProt Q9UPN9); assay: DSF selectivity profiling; type: binding
Description: as §1

BRDT-BD1 = BRDT-BD1 (Homo sapiens (Human), UniProt Q58F21); assay: DSF selectivity profiling; type: binding
Description: as §1

CREBBP = CREBBP (Homo sapiens (Human), UniProt Q92793); assay: DSF selectivity profiling; type: binding
Description: as §1

[6] = system: other tested bromodomains; assay: DSF selectivity panel of 22 bromodomains; type: binding, human; conditions: bromodomains other than PBRM1-BD2, -BD3, -BD5
Description: as §1

SMARCA2 [7] = target: T3, SMARCA2 (Homo sapiens (Human), UniProt P51531); assay: Isothermal titration calorimetry (ITC); type: binding; conditions: NB = did not bind
Description: as §3

SMARCA4 [8] = target: T2, SMARCA4; assay: Isothermal titration calorimetry (ITC); type: binding; conditions: NB = did not bind
Description: as §3

[9] = Solubility at concentrations tested in the AlphaScreen assay
Description: AlphaScreen. […] All reagents were diluted in Epigenetic Buffer (5×), 2 μM TCEP, and 0.5% v/v Tween-20. The assay used a final volume of 40 μL. Stock solutions of inhibitors in DMSO were made at eight different concentrations (100 mM, 10 mM, 1 mM, 300 μM, 100 μM, 30 μM, 10 μM, 3 μM). 0.4 μL of inhibitor DMSO stocks were further diluted to 10 μL in the buffer. […] The mixture (40 μL) was further incubated for 1 h in a dark room and the luminescence was read on a BioTek Cytation5 Imaging Reader using an AlphaScreen detection filter cube. Data was plotted in GraphPad Prism using non-linear regression dose-response three variable slopes.

PC3 cells = assay: Cell viability assay (CellTiter-Glo); type: cell-based, human; conditions: 10, 1 and 0.1 μM
Description: (§2) Cell Viability Assays. Cells were seeded in a 96-well plate and incubated for 12-24 h prior to initial treatment. The number of cells per well was chosen empirically based on cell growth rates (LNCaP-5,000 cells/well, PC3 and RWPE-1-3,000 cells per well, HEK293T-1,000 cells/well). Cells were treated with either DMSO control or serial dilutions of inhibitors and media with compound was refreshed every 48 h.

RWPE-1 cells = assay: Cell viability assay (CellTiter-Glo); type: cell-based, human; conditions: 10, 1 and 0.1 μM
Description: as §2

HEK293T cells = assay: Cell viability assay (CellTiter-Glo); type: cell-based, human; conditions: dose curve
Description: as §2

SMARCA2 [10] = target: T3, SMARCA2; assay: DSF selectivity profiling; type: binding
Description: as §1

T1 sequence (Q86U86 177-287): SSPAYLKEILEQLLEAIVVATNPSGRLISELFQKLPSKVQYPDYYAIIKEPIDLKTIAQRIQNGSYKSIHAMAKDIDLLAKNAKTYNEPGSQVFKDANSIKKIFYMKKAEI
T3 sequence (P51531 1378-1506): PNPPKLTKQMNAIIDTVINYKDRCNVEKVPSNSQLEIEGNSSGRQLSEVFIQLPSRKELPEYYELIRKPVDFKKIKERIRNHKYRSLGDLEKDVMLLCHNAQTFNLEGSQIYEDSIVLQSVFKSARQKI
Sequence of BRD7 (Q9NPI1 131-235): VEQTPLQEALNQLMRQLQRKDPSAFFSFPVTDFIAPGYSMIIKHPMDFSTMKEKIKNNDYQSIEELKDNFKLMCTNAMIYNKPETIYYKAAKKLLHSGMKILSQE
Sequence of BRD2-BD2 (P25440 344-453): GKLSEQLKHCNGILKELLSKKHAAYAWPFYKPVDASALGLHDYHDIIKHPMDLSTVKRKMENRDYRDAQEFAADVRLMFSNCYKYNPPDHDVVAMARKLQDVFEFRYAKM
Sequence of CECR2 (Q9BXF3 434-538): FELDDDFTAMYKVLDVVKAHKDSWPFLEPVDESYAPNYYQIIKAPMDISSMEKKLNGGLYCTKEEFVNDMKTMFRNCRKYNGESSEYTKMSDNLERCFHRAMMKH
Sequence of p300 (Q09472 1049-1156): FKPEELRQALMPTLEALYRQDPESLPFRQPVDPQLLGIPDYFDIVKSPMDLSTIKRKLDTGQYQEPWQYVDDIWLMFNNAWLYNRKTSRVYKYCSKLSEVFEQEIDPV
Sequence of BRD3-BD2 (Q15059 306-415): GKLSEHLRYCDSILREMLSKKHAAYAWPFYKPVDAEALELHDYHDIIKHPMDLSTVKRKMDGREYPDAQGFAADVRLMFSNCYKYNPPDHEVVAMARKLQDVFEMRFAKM
Sequence of CREBBP (Q92793 1085-1192): as the sequence (Q09472 1049-1156) above, with S47N, I73V, Y93F, S98A counted along it
Sequence of TRIM33A (Q9UPN9 957-1080): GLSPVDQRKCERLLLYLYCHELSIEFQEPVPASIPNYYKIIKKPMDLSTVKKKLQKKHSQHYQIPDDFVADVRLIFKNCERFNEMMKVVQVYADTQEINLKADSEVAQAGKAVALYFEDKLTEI
Sequence of PCAF (Q92831 723-827): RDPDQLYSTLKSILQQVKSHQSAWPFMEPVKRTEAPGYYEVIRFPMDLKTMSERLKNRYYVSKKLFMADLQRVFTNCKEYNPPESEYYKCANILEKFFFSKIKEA
Sequence of BRD3-BD1 (Q15059 34-140): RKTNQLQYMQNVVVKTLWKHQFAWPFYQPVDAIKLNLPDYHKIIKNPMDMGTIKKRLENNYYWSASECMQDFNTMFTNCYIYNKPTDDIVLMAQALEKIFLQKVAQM
T2 sequence (P51532 1453-1564): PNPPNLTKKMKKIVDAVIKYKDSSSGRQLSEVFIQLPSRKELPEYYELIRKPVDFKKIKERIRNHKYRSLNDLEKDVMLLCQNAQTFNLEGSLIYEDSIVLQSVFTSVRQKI
Sequence of PBRM1-BD5 (Q86U86 653-763): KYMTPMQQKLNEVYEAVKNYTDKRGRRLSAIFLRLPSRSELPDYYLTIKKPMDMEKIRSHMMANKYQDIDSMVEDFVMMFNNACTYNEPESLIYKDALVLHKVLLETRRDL

Row | SMILES | BRD4-BD2 ΔTm (BRD4-BD2) [°C] | PCAF ΔTm (PCAF) [°C] | BRD3-BD2 ΔTm (BRD3-BD2) [°C] | BRD2-BD2 ΔTm (BRD2-BD2) [°C] | BRD4-BD1 ΔTm (BRD4-BD1) [°C] | p300 ΔTm (p300) [°C] | BRD7 ΔTm (BRD7) [°C] | CECR2 ΔTm (CECR2) [°C] | ASH1L ΔTm (ASH1L) [°C] | BRD3-BD1 ΔTm (BRD3-BD1) [°C] | TRIM33A ΔTm (TRIM33A) [°C] | BRDT-BD1 ΔTm (BRDT-BD1) [°C] | CREBBP ΔTm (CREBBP) [°C] | further results
1 | O=C1NC(c2c(F)cccc2Cl)Nc2ccccc21 (centres unmarked) [Compound 5, 2-(2-Chloro-6-fluorophenyl)-2,3-dihydroquinazolin-4(1H)-one] | – | – | – | – | – | – | – | – | – | – | – | – | – | IC50 (PBRM1-BD2 [1]): 4.2 ± 1.3 µM; Kd (PBRM1-BD2 [2]): 18.4 µM; Kd (PBRM1-BD5): 179 µM; Kd (PBRM1-BD2 [3]): 50 µM; Kd (PBRM1-BD2 [3]; NMR titration, chemical shift perturbations vs fragment concentration, read-out: Kd): 45.3 ± 8.1 µM; ΔTm at 100 µM (PBRM1-BD2 [4]): 1 ± 0.2 °C
2 | Cc1ccccc1C1NC(=O)c2c(Cl)cccc2N1 (centres unmarked) [Compound 15, 5-Chloro-2-(2-methylphenyl)-2,3-dihydroquinazolin-4(1H)-one] | −3.3 | 0.5 | 0.4 | 0.6 | 0.1 | 0.2 | 0.2 | −0.5 | −0.6 | 0.3 | 0.8 | −0.7 | 0.5 | SMARCA4 ΔTm (SMARCA4 [5]): did not exhibit detectable thermal stabilization or binding affinity; thermal stabilization against other tested bromodomains [6]: < 1 °C; Kd SMARCA2 (SMARCA2 [7]): did not exhibit detectable thermal stabilization or binding affinity; Kd SMARCA4 (SMARCA4 [8]): did not exhibit detectable thermal stabilization or binding affinity
3 | Cc1cc(C)c(C2NC(=O)c3c(Cl)cccc3N2)c(C)c1 (centres unmarked) [Compound 22, 5-Chloro-2-(2,4,6-trimethylphenyl)-2,3-dihydroquinazolin-4(1H)-one] | – | – | – | – | – | – | – | – | – | – | – | – | – | solubility in the AlphaScreen assay [9]: solubility issues
4 | Cc1cccc(C2NC(=O)c3c(Cl)cccc3N2)c1C (centres unmarked) [Compound 25, 5-Chloro-2-(2,3-dimethylphenyl)-2,3-dihydroquinazolin-4(1H)-one] | −4.2 | 0.1 | 0.4 | 0.2 | 0.6 | 0.6 | 0.0 | 0.8 | −0.8 | 0.4 | 0.3 | 0.1 | 0.6 | growth inhibition of PC3 cells (PC3 cells): also inhibits the PC3, RWPE1, and HEK293T cells similarly; growth inhibition of RWPE1 cells (RWPE-1 cells): also inhibits the PC3, RWPE1, and HEK293T cells similarly; growth inhibition of HEK293T cells (HEK293T cells): also inhibits the PC3, RWPE1, and HEK293T cells similarly; SMARCA2 ΔTm (SMARCA2 [10]): 0.0 °C
